Measured values taken from publication PMC8035703, “Effect of Synchronous Versus Sequential Regimens on the Pharmacokinetics and Biodistribution of Regorafenib with Irradiation” (Pharmaceutics, 2021).
“Also recorded” adds a separate entry of the source. Like-named read-outs stand apart in the source and are kept apart here.

Experiment: Organ distribution of regorafenib in rats with or without RT
Format: in vivo, Sprague-Dawley rats
Details: for concentration at 4 h: Sprague-Dawley, rat, 16 mg/kg, 4 h after oral administration
Method: According to the formula used to translate doses from animal to human, human equivalent dose (HED, mg/kg) = animal dose (mg/kg) × animal km/human km, we calculated the daily dose of regorafenib for rats to be 16 (mg/kg/day). The rats were randomly divided into ten groups with six rats in each group. The concurrent groups treated with regorafenib 1 h after RT, in the same day, to mimic regorafenib concurrent with RT in the daily practice. The sequential groups treated with regorafenib following RT (not in the same day), to mimic RT followed by regorafenib in the daily practice. The one fraction study group included (A) a sham group, regorafenib with RT0 Gy (regorafenib × 1 d); concurrent groups treated with regorafenib 1 h after (B) RT2 Gy with 1 fraction (RT2 Gy × 1 f’x) and (D) RT9 Gy with 1 fraction (RT9 Gy × 1 f’x); and sequential groups treated with regorafenib 24 h after (C) RT2 Gy × 1 f’x and (E) RT9 Gy × 1 f’x. Continued treatment mimicking clinical practice was applied to (A) a sham group, regorafenib (p.o. (per os), q.d. × 3 d) with RT0 Gy (regorafenib × 3 d); concurrent groups treated with regorafenib (p.o., q.d. × 3 d) 1 h after (B) RT2 Gy with 3 fractions (RT2 Gy × 3 f’x) and (D) RT9 Gy with 3 fractions (RT9Gy × 3 f’x); and sequential groups treated with regorafenib 24 h (p.o., q.d. × 3 d) after (C) RT2 Gy × 3 f’x and (E) RT9 Gy × 3 f’x. (Figure 1A,B).
Organs, including the brain, liver, heart, spleen, lung and kidney, were collected, weighed and stored at −20 °C, until analysis.
The organ samples were homogenized in 50% aqueous acetonitrile (sample weight: volume = 1:5) and centrifuged at 13,000× g, for 10 min, at 4 °C. The supernatant was stored at −20 °C, until analysis. Additionally, 150 μL of IS solution (diethylstilbestrol) was combined with each organ sample (50 μL) for protein precipitation. Finally, the filtrate (20 μL) was analyzed by HPLC.

concentration at 4 h (brain, oral, RT2 Gy × 1 f'x followed by regorafenib 16 mg/kg × 1 d (sequential), read-out: Concentration in brain): 80 ± 60 ng/g
concentration at 4 h (brain, oral, RT2 Gy × 3 f'x followed by regorafenib 16 mg/kg × 3 d (sequential), read-out: Concentration in brain): 30 ± 50 ng/g
concentration at 4 h (brain, oral, RT2 Gy × 3 f'x with regorafenib 16 mg/kg × 3 d (concurrent), read-out: Concentration in brain): 20 ± 50 ng/g
concentration at 4 h (brain, oral, RT9 Gy × 1 f'x with regorafenib 16 mg/kg × 1 d (concurrent), read-out: Concentration in brain): 10 ± 20 ng/g
concentration at 4 h (heart, oral, RT2 Gy × 1 f'x followed by regorafenib 16 mg/kg × 1 d (sequential), read-out: Concentration in heart): 780 ± 270 ng/g
concentration at 4 h (heart, oral, RT2 Gy × 3 f'x followed by regorafenib 16 mg/kg × 3 d (sequential), read-out: Concentration in heart): 290 ± 180 ng/g
concentration at 4 h (heart, oral, RT2 Gy × 3 f'x with regorafenib 16 mg/kg × 3 d (concurrent), read-out: Concentration in heart): 30 ± 30 ng/g
concentration at 4 h (heart, oral, RT9 Gy × 1 f'x with regorafenib 16 mg/kg × 1 d (concurrent), read-out: Concentration in heart): 360 ± 330 ng/g
concentration at 4 h (kidney, oral, RT2 Gy × 1 f'x followed by regorafenib 16 mg/kg × 1 d (sequential), read-out: Concentration in kidneys): 590 ± 270 ng/g
concentration at 4 h (kidney, oral, RT2 Gy × 3 f'x followed by regorafenib 16 mg/kg × 3 d (sequential), read-out: Concentration in kidneys): 730 ± 440 ng/g
concentration at 4 h (kidney, oral, RT2 Gy × 3 f'x with regorafenib 16 mg/kg × 3 d (concurrent), read-out: Concentration in kidneys): 130 ± 60 ng/g
concentration at 4 h (kidney, oral, RT9 Gy × 1 f'x with regorafenib 16 mg/kg × 1 d (concurrent), read-out: Concentration in kidneys): 180 ± 50 ng/g
concentration at 4 h (liver, oral, RT2 Gy × 1 f'x followed by regorafenib 16 mg/kg × 1 d (sequential), read-out: Concentration in liver): 2280 ± 750 ng/g
concentration at 4 h (liver, oral, RT2 Gy × 3 f'x followed by regorafenib 16 mg/kg × 3 d (sequential), read-out: Concentration in liver): 1680 ± 650 ng/g
concentration at 4 h (liver, oral, RT2 Gy × 3 f'x with regorafenib 16 mg/kg × 3 d (concurrent), read-out: Concentration in liver): 550 ± 270 ng/g
concentration at 4 h (liver, oral, RT9 Gy × 1 f'x with regorafenib 16 mg/kg × 1 d (concurrent), read-out: Concentration in liver): 1010 ± 580 ng/g
concentration at 4 h (lung, oral, RT2 Gy × 1 f'x followed by regorafenib 16 mg/kg × 1 d (sequential), read-out: Concentration in lung): 1270 ± 640 ng/g
concentration at 4 h (lung, oral, RT2 Gy × 3 f'x followed by regorafenib 16 mg/kg × 3 d (sequential), read-out: Concentration in lung): 990 ± 430 ng/g
concentration at 4 h (lung, oral, RT2 Gy × 3 f'x with regorafenib 16 mg/kg × 3 d (concurrent), read-out: Concentration in lung): 210 ± 90 ng/g
concentration at 4 h (lung, oral, RT9 Gy × 1 f'x with regorafenib 16 mg/kg × 1 d (concurrent), read-out: Concentration in lung): 170 ± 140 ng/g
concentration at 4 h (spleen, oral, RT2 Gy × 1 f'x followed by regorafenib 16 mg/kg × 1 d (sequential), read-out: Concentration in spleen): 680 ± 300 ng/g
concentration at 4 h (spleen, oral, RT2 Gy × 3 f'x followed by regorafenib 16 mg/kg × 3 d (sequential), read-out: Concentration in spleen): 410 ± 240 ng/g
concentration at 4 h (spleen, oral, RT2 Gy × 3 f'x with regorafenib 16 mg/kg × 3 d (concurrent), read-out: Concentration in spleen): 80 ± 60 ng/g
concentration at 4 h (spleen, oral, RT9 Gy × 1 f'x with regorafenib 16 mg/kg × 1 d (concurrent), read-out: Concentration in spleen): 140 ± 70 ng/g
concentration at 4 h (male, brain, oral, RT2 Gy × 1 f'x with regorafenib 16 mg/kg × 1 d (concurrent), read-out: Concentration in brain): 20 ± 30 ng/g
concentration at 4 h (male, brain, oral, RT9 Gy × 1 f'x followed by regorafenib 16 mg/kg × 1 d (sequential), read-out: Concentration in brain): 60 ± 50 ng/g
concentration at 4 h (male, brain, oral, RT9 Gy × 3 f'x followed by regorafenib 16 mg/kg × 3 d (sequential), read-out: Concentration in brain): 40 ± 80 ng/g
concentration at 4 h (male, brain, oral, RT9 Gy × 3 f'x with regorafenib 16 mg/kg × 3 d (concurrent), read-out: Concentration in brain): 10 ± 20 ng/g
concentration at 4 h (male, brain, po, 16 mg/kg p.o. × 1 d, no RT, read-out: Concentration in brain): 30 ± 40 ng/g
concentration at 4 h (male, brain, po, 16 mg/kg p.o. × 3 d, no RT, read-out: Concentration in brain): 10 ± 20 ng/g
concentration at 4 h (male, heart, oral, RT2 Gy × 1 f'x with regorafenib 16 mg/kg × 1 d (concurrent), read-out: Concentration in heart): 290 ± 170 ng/g
concentration at 4 h (male, heart, oral, RT9 Gy × 1 f'x followed by regorafenib 16 mg/kg × 1 d (sequential), read-out: Concentration in heart): 870 ± 140 ng/g
concentration at 4 h (male, heart, oral, RT9 Gy × 3 f'x followed by regorafenib 16 mg/kg × 3 d (sequential), read-out: Concentration in heart): 170 ± 270 ng/g
concentration at 4 h (male, heart, oral, RT9 Gy × 3 f'x with regorafenib 16 mg/kg × 3 d (concurrent), read-out: Concentration in heart): 90 ± 70 ng/g
SMILES: CNC(=O)c1cc(Oc2ccc(NC(=O)Nc3ccc(Cl)c(C(F)(F)F)c3)c(F)c2)ccn1 [regorafenib, Regorafenib]
Biodistribution in heart, liver, lung, spleen and kidneys (in words) (concurrent RT2 Gy × 3 f'x and RT9 Gy × 3 f'x vs control (regorafenib × 3 d)): clearly decreased the biodistribution of regorafenib; also recorded: obviously decreased the biodistribution of regorafenib
